Laboratory results taken from PMC4383003, “Transfer hydrogenation catalysis in cells as a new approach to anticancer drug design” (Nature Communications, 2015).

Key:
CT-DNA [1] = test: Circular dichroism of CT-DNA; format: binding, calf; conditions: different concentrations of complex 2
Method: Supplementary Figure 4: Circular dichroism spectra of CT-DNA (1 mM) in red and CT-DNA (1 mM)/complex 2 (mol ratio 3:1) in black. Spectra were recorded under the same conditions, using (A) cacodylate buffer (2 mM, pH 7.4) and NaCl (20 mM) at 298 K, (B) PBS buffer (2 mM, pH 7.4) and NaCl (20 mM).
(1 picture or pasted object on this page, not shown here) […]
(§1) the nucleobases.11 Destabilization of DNA can result in a decrease of the melting […]
(§2) In the presence of complex 8, the melting temperature of CT-DNA increased In agreement with the literature, 12 by 14 K, in 2 mM NaCl, 2 mM cacodylate buffer.
(§3) This increase is due to Ru binding to DNA as well as intercalation. 12 However, upon increasing the chloride concentration by ca. 10x (20 mM NaCl) the melting temperature of CT-DNA in the presence of complex 8, increased only by 7 K. This effect has previously been reported and it is attributed to the partial inhibition of hydrolysis, and, therefore, inhibition of coordination to DNA. 12, 13
(§4) Experiments performed in the presence of complex 2, in 2 mM cacodylate buffer and […]
NaCl, no decrease of the melting temperature was observed. These experiments […]
Furthermore, strong binding to DNA can induce chirality in the metal complex, generating a CD signal. 14 CD spectra of CT-DNA in the presence of different concentrations of complex 2 were recorded (Supplementary Figure 4). […]

CT-DNA [2] = test: Thermal stability (melting temperature) of CT-DNA by UV-Vis; format: binding, calf; conditions: for Tm: CT-DNA, 1:3 complex:base pairs, 2 mM cacodylate pH 7.4, 2 h 310 K; for ΔTm: versus free DNA
Method: Supplementary Table 6: Melting temperature (Tm) of CT-DNA in the presence of 8 or complex 2 (ratio 1:3, complex: base pairs-DNA). The reactions were carried out in cacodylate buffer (2 mM, pH 7.4), and samples incubated for 2 h at 310 K. […]
a variation in melting temperature between free DNA and DNA in the presence of the corresponding complex. * […] from free DNA using a T-test analysis. ** p < 0.01 from free DNA using a T-test analysis […]
Thermal stability of CT-DNA
The melting temperature of CT-DNA in the presence and absence of complex 2 [(p-cym)Ru(TsEn)Cl] was determined by UV-Vis spectroscopy (Supplementary Table 6). Higher melting temperatures indicate increased stabilization of the DNA, which is the effect produced by DNA-intercalators and often by direct metal coordination to […]
as §1, §2, §3, §4
NaCl, no decrease of the melting temperature was observed. […]

[3] = system: NAD^+/NADH ratio in A2780 cells; test: NAD+/NADH determination in cells; format: cell-based, human
Method: Experiments to determine the NAD^+/NADH ratio in A2780 ovarian cancer cells exposed to complex 2 were carried out using the NAD^+/NADH assay kit from Abcam (ab65348) according to the manufacturer’s instructions. Briefly, A2780 cells were seeded in six-well plates at a density of 1.0 × 10^6 cells per well. […] These concentrations of sodium formate were also used on their own as a second set of negative controls. Drug exposure was allowed for 24 h, after which all supernatants were removed by suction and wells were washed with PBS. Cells were treated with trypsin, detached and counted before being pelleted by centrifugation. Cell pellets were extracted using the NAD/NADH extraction buffer and filtered using a 10-kDa-molecular weight cutoff filter. Samples were split into two, the first half was used to determine total NADt (NAD+NADH), and the second half to determine NADH after heating the samples at 333 K for 30 min. The absorbance at 450 nm was normalized against the protein content in each sample determined using the Bradford assay.
Experiments to determine the time dependence of the NAD/NADH ratio in A2780 ovarian cancer cells exposed to complex 2 were carried out using the NAD^+/NADH assay kit as described above with the following modifications.

A2780 cells [4] = test: Cellular membrane integrity (CytoPainter flow cytometry); format: cell-based, human; conditions: A2780, complex 2 alone or with 2 mM sodium formate, 24 h
Method: Flow cytometry analysis of cellular membrane integrity of A2780 cells caused by exposure to complex 2 and sodium formate were carried out using the CytoPainter assay (Abcam) according to the manufacturer’s instructions. […] Cells were harvested using trypsin and stained in the dark using CytoPainter Red (Ex/Em 583/603 nm), which reacts with cell surface amines in compromised membranes. After staining, cell pellets were analysed in a Becton Dickinson FACScan Flow Cytometer.

A2780 cells [5] = test: ROS determination by flow cytometry; format: cell-based, human; conditions: A2780, complex 2 and 2 mM sodium formate, 24 h
Method: Flow cytometry analysis of total induction of ROS in A2780 cells caused by exposure to complex 2 and sodium formate was carried out using the Total ROS detection kit (Enzo Life Sciences) according to the supplier’s instructions. Briefly, 1.0 × 10^6 A2780 cells per well were seeded in a six-well plate. […] After 24 h of drug exposure, supernatants were removed by suction and cells were washed and harvested. Staining was achieved by resuspending the cell pellets in buffer containing the green fluorescent reagent. Cells were analysed in a Becton Dickinson FACScan Flow Cytometer using Ex/Em: 490/525 nm for the oxidative stress detection. Data were processed using Flowjo software. The experiment included cells treated with pyocyanin for 30 min as positive control.

For `Cc1ccc(C(C)C)cc1.Cc1ccc(S(=O)(=O)[N-]CCN)cc1.[Cl-].[Ru+2]` [Complex 2, [(p-cym)Ru(TsEn)Cl]], the “changes in CD spectra of CT-DNA” value (CT-DNA [1]) was “No changes”, the “decrease in the melting temperature of CT-DNA” value (CT-DNA [2]; 2 mM cacodylate buffer and 2 mM NaCl) was -269 °C and the Tm (CT-DNA [2]; 2 mM NaCl) was 47.2 ± 1.6 °C. The Tm (CT-DNA [2]; 20 mM NaCl) was 54.4 ± 0.7 °C, the ΔTm (CT-DNA [2]; 2 mM NaCl) was -2.4 and the ΔTm (CT-DNA [2]; 20 mM NaCl) was -4.9. For the same compound, the “apparent TOF (TOFap) for conversion of NAD+ to NADH in cells” value ([3]; A2780, 4.5 μM complex 2 and 2 mM sodium formate, 0-24 h) was 0.19 ± 0.01 h⁻¹, the “NAD+/NADH ratio” value ([3]; A2780, complex 2, 24 h, 2 mM formate) was 1.1 and the “NAD+/NADH ratio” value ([3]; A2780, complex 2, 24 h, no formate) was 4.5. The “NAD+/NADH ratio” value ([3]; A2780, complex 2 and 2 mM sodium formate, after 12 h) was 0.74, the “NAD+/NADH ratio” value ([3]; A2780, complex 2 and 2 mM sodium formate, after 24 h) was 0.98 and the “NAD+/NADH ratio” value ([3]; A2780, complex 2 and 2 mM sodium formate, t=4 h) was 0.83. For the same compound, the “cellular membrane integrity, FL2 fluorescence of CytoPainter red” value (A2780 cells [4]) was “low fluorescence” and the “levels of reactive oxygen species (ROS) in treated cells” value (A2780 cells [5]) was “comparable to those arising from treatment with N-acetyl-L-cysteine”.
